{"source": "PubChem BioAssay AID1963978", "about": "(Molecular Pharmacology Branch, DTP, NCI, 2024)", "system": "616215-338-R-J1-PDC spheroids with HUVEC/MSC, viability", "test": "Anticancer human tumor 616215-338-R-J1-PDC patient-derived colon adenocarcinoma cell line growth inhibition [PI3K]", "details": "for viability, T/C: stronger effect = lower value", "how_it_was_run": "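High-throughput combination screen: PI3K inhibitors crossed with targeted small molecules on complex spheroids of tumor cells, HUVEC and MSCs at 37 degrees C, 5% CO2. Top concentration was at or near clinical Cmax (otherwise 10 microM), with half-log decrements.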"}
{"compound": "Cn1cnc2c(F)c(Nc3ccc(Br)cc3Cl)c(C(=O)NOCCO)cc21", "note": "+ CC(Nc1ccc2c(c1)OCCn1cc(N3C(=O)OCC3C(F)F)nc1-2)C(N)=O;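 also: spheroids exposed to agents for seven days before the viability read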", "values": [{"measurement": "IC50", "setting": "curve of first compound, second compound 0.00316 µM", "result": 1400, "unit": "nM"}, {"measurement": "IC50", "setting": "curve of first compound, second compound 0.01 µM", "result": 1160, "unit": "nM"}, {"measurement": "IC50", "setting": "curve of first compound, second compound 0.0316 µM", "result": 764, "unit": "nM"}, {"measurement": "IC50", "setting": "curve of first compound, second compound 0.1 µM", "result": 982, "unit": "nM"}, {"measurement": "IC50", "setting": "curve of first compound, second compound 0.316 µM", "result": 495, "unit": "nM"}, {"measurement": "IC50", "setting": "curve of first compound, second compound 1 µM", "result": 408, "unit": "nM"}, {"measurement": "viability, T/C", "setting": "second compound 0.00316 µM, first compound 0.00949 µM", "result": 96.5, "unit": "%"}, {"measurement": "viability, T/C", "setting": "second compound 0.00316 µM, first compound 0.03 µM", "result": 98.9, "unit": "%"}, {"measurement": "viability, T/C", "setting": "second compound 0.00316 µM, first compound 0.0949 µM", "result": 83.7, "unit": "%"}, {"measurement": "viability, T/C", "setting": "second compound 0.00316 µM, first compound 0.3 µM", "result": 76, "unit": "%"}, {"measurement": "viability, T/C", "setting": "second compound 0.00316 µM, first compound 0.949 µM", "result": 56.8, "unit": "%"}, {"measurement": "viability, T/C", "setting": "second compound 0.00316 µM, first compound 3 µM", "result": 36.5, "unit": "%"}, {"measurement": "viability, T/C", "setting": "second compound 0.01 µM, first compound 0.00949 µM", "result": 94.6, "unit": "%"}, {"measurement": "viability, T/C", "setting": "second compound 0.01 µM, first compound 0.03 µM", "result": 91, "unit": "%"}, {"measurement": "viability, T/C", "setting": "second compound 0.01 µM, first compound 0.0949 µM", "result": 87.8, "unit": "%"}, {"measurement": "viability, T/C", "setting": "second compound 0.01 µM, first compound 0.3 µM", "result": 71.8, "unit": "%"}, {"measurement": "viability, T/C", "setting": "second compound 0.01 µM, first compound 0.949 µM", "result": 54.7, "unit": "%"}, {"measurement": "viability, T/C", "setting": "second compound 0.01 µM, first compound 3 µM", "result": 31.4, "unit": "%"}, {"measurement": "viability, T/C", "setting": "second compound 0.0316 µM, first compound 0.00949 µM", "result": 96.1, "unit": "%"}, {"measurement": "viability, T/C", "setting": "second compound 0.0316 µM, first compound 0.03 µM", "result": 110, "unit": "%"}, {"measurement": "viability, T/C", "setting": "second compound 0.0316 µM, first compound 0.0949 µM", "result": 77.2, "unit": "%"}, {"measurement": "viability, T/C", "setting": "second compound 0.0316 µM, first compound 0.3 µM", "result": 77.5, "unit": "%"}, {"measurement": "viability, T/C", "setting": "second compound 0.0316 µM, first compound 0.949 µM", "result": 38.3, "unit": "%"}, {"measurement": "viability, T/C", "setting": "second compound 0.0316 µM, first compound 3 µM", "result": 38.8, "unit": "%"}, {"measurement": "viability, T/C", "setting": "second compound 0.1 µM, first compound 0.00949 µM", "result": 106, "unit": "%"}, {"measurement": "viability, T/C", "setting": "second compound 0.1 µM, first compound 0.03 µM", "result": 86.9, "unit": "%"}, {"measurement": "viability, T/C", "setting": "second compound 0.1 µM, first compound 0.0949 µM", "result": 87.2, "unit": "%"}, {"measurement": "viability, T/C", "setting": "second compound 0.1 µM, first compound 0.3 µM", "result": 65.2, "unit": "%"}, {"measurement": "viability, T/C", "setting": "second compound 0.1 µM, first compound 0.949 µM", "result": 48.9, "unit": "%"}, {"measurement": "viability, T/C", "setting": "second compound 0.1 µM, first compound 3 µM", "result": 37, "unit": "%"}, {"measurement": "viability, T/C", "setting": "second compound 0.316 µM, first compound 0.00949 µM", "result": 109, "unit": "%"}, {"measurement": "viability, T/C", "setting": "second compound 0.316 µM, first compound 0.03 µM", "result": 94.8, "unit": "%"}, {"measurement": "viability, T/C", "setting": "second compound 0.316 µM, first compound 0.0949 µM", "result": 79.4, "unit": "%"}, {"measurement": "viability, T/C", "setting": "second compound 0.316 µM, first compound 0.3 µM", "result": 57.4, "unit": "%"}, {"measurement": "viability, T/C", "setting": "second compound 0.316 µM, first compound 0.949 µM", "result": 39, "unit": "%"}, {"measurement": "viability, T/C", "setting": "second compound 0.316 µM, first compound 3 µM", "result": 35.9, "unit": "%"}, {"measurement": "viability, T/C", "setting": "second compound 1 µM, first compound 0.00949 µM", "result": 106, "unit": "%"}, {"measurement": "viability, T/C", "setting": "second compound 1 µM, first compound 0.03 µM", "result": 85.1, "unit": "%"}, {"measurement": "viability, T/C", "setting": "second compound 1 µM, first compound 0.0949 µM", "result": 79.7, "unit": "%"}, {"measurement": "viability, T/C", "setting": "second compound 1 µM, first compound 0.3 µM", "result": 51.6, "unit": "%"}, {"measurement": "viability, T/C", "setting": "second compound 1 µM, first compound 0.949 µM", "result": 37.5, "unit": "%"}, {"measurement": "viability, T/C", "setting": "second compound 1 µM, first compound 3 µM", "result": 26.4, "unit": "%"}]}
{"compound": "CC(Nc1ncnc2nc[nH]c12)c1cc2cccc(Cl)c2c(=O)n1-c1ccccc1", "note": "(centres undefined)", "values": [{"measurement": "viability, T/C", "setting": "compound 0.0316 µM", "result": "103% [middle of 8 runs]"}, {"measurement": "viability, T/C", "setting": "compound 0.1 µM", "result": "96.5% [middle of 8 runs]"}, {"measurement": "viability, T/C", "setting": "compound 0.316 µM", "result": "99.3% [middle of 8 runs]"}, {"measurement": "viability, T/C", "setting": "compound 1 µM", "result": "105% [middle of 8 runs]"}, {"measurement": "viability, T/C", "setting": "compound 3.16 µM", "result": "102% [middle of 8 runs]"}, {"measurement": "viability, T/C", "setting": "compound 10 µM", "result": "105% [middle of 8 runs]"}, {"measurement": "IC50", "setting": "compound alone, run of 05/09/2023", "result": "> 10000", "unit": "nM"}]}
